According to patent US5679671A, “Amino acid derivative” (Eisai Co., Ltd., priority 1993, dated 1997):

How the values were obtained:
Assay type in all cases: biochemical
[1] = target: T1, NEP (Rattus norvegicus, UniProt P07861); test: NEP inhibition activity (Experiment F-1); parameters: membrane fraction prepared from rat renal cortex; from tissue; host or cells: rat renal cortex, membrane fraction (method of Booth and Kenny); details: rat renal cortex membrane fraction
T1 sequence (P07861 1-750): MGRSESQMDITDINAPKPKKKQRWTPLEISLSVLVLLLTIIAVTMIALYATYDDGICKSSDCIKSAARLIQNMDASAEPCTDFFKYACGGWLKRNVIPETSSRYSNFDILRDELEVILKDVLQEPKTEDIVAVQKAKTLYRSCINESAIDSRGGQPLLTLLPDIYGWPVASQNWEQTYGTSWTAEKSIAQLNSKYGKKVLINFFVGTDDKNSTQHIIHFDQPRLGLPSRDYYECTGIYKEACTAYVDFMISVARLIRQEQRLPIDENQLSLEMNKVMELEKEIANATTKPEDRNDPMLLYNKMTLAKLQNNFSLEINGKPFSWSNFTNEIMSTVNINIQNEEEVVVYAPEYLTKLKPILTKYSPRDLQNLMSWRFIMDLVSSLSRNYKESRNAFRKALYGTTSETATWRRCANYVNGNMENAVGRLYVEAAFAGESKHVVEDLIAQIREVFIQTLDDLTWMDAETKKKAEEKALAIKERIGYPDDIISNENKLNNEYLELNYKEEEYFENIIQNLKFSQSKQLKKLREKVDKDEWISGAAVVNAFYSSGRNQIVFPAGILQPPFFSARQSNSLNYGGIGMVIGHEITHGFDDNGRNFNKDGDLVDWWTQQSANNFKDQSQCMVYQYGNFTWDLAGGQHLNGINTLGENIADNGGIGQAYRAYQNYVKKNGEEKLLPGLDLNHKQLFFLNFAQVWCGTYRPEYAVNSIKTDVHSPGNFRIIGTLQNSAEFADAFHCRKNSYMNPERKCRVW
Description: As a source of the enzyme NEP, a membrane fraction prepared from rat renal cortex in accordance with the method of Booth and Kenny (A Rapid Method for the Purification of Microvilli from Rabbit Kidney., Andrew G. Booth and A. John Kenny, Biochem. j., 1974, 142, 575-581.) was employed. The NEP activity was determined in accordance with the method of Orlowsky and Wilk (Purification and Specificity of a Membrane-Bound Metalloendpeptidase from Bovine Pituitaries., Marian Orlowsky and Shrwin Wilk, Biochemistry, 1981, 20, 4942-4950.). Now the procedure will be briefly described.
(§1) As a substrate, benzoyl-glycyl-arginyl-arginyl-2-naphthylamide (benzoyl-Gly-Arg-Arg-2-naphthylamide (Nova Biochem, Switzerland)) was used. In the presence of an NEP enzyme preparation and excessive leucine aminopeptidase (sigma chemical Co., U.S.A.), the liberated naphthylamine was made to undergo color development with first garnet (Sigma chemical Co., U.S.A.), followed by the measurement of the absorbance at a wavelength of 540 nm.
(§2) With respect to the NEP inhibition activity and the ACE inhibition activity, the inhibitor was added to the assay systems of both enzyme activities as described above in such a manner as to give the final concentrations of 1, 3, 10, 30, 100, 300 and 1000 inhibition curves were prepared, and then the concentration at which 50% inhibition was achieved was taken as IC50.

[2] = target: T2, ACE (Rattus norvegicus, UniProt P47820); test: ACE inhibition activity (Experiment F-1); details: rat lung membrane fraction, pH 8.3
T2 construct: membrane fraction prepared from rat lung; from tissue; host or cells: rat lung, membrane fraction (method of Wu-Wong et al.)
T2 sequence (P47820 36-1313): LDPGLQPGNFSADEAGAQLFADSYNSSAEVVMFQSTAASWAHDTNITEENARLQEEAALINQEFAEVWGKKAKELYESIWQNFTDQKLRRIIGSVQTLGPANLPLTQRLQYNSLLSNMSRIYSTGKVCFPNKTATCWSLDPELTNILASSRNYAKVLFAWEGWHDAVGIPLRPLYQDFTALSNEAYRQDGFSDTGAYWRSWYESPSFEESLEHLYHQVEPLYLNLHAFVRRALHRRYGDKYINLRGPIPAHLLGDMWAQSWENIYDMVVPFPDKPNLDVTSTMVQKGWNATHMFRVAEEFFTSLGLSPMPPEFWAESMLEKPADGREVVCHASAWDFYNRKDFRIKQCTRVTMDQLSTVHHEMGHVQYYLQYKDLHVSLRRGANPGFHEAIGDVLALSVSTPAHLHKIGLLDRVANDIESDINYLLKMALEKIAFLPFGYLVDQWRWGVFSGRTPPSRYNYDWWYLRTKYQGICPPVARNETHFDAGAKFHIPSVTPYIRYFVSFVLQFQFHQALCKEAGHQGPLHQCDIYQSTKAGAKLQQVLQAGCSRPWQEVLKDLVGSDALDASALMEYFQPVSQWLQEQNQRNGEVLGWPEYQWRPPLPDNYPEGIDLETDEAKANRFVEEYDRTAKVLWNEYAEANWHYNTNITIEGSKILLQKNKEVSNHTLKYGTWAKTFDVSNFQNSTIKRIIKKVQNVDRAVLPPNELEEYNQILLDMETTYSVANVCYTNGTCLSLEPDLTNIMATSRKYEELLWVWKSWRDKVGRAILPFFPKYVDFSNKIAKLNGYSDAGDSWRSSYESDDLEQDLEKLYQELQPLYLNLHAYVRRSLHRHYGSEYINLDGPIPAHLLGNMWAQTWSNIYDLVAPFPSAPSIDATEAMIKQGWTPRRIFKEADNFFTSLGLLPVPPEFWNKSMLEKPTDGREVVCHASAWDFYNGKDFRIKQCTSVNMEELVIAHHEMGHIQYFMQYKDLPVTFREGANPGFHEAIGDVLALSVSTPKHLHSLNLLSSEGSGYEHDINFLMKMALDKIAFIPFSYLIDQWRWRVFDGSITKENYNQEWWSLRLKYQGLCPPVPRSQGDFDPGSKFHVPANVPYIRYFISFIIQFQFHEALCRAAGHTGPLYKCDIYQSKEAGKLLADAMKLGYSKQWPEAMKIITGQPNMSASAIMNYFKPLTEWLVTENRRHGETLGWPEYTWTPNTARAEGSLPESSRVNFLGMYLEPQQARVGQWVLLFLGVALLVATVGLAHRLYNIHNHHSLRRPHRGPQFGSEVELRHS
Description: As a source of the enzyme ACE, a membrane fraction prepared from rat lung in accordance with the method of Wu-Wong et al. (Characterization of Endthelin Converting Enzyme in Rat Lung., Jinshyum R. Wu-Wong, Gerald P. Budzik, Edward M, Devine and Terry J. Opgenorth, Biochem. Biophys. Res. Commun., 1990, 171, 1291-1296.) was used. The ACE activity was determined with the use of a modification (modified to a borate buffer pH 8.3) of the method of Cushman and Cheung (Spectrophotometric Assay and Properties of the Angiotensin-Converting Enzyme of Rabbit Lung., Cushman D. W. and Cheung H. S., 1971, 20, 1637-1648.). Now the procedure will be briefly described.
In the presence of ACE, the hippurate liberated from hippuryl-histidyl-leucine (Hippuryl-His-Leu (Peptide Institute Inc., Japan)) was extracted with ethyl acetate and then the absorbance was measured at a wavelength of 228 nm.
as §2

[3] = target: T1, NEP; test: NEP inhibition activity (Experiment C-1); details: Table C-1
Description: The NEP activity was determined by the following manner in accordance with the method of Orlowsky and Wilk (Purification and Specificity of a Membrane-Bound Metalloendpeptidase from Bovine Pituitaries., Marian Orlowsky and Shrwin Wilk, Biochemistry, 1981, 20, 4942-4950.).
as §1
(§3) With respect to the NEP inhibition activity, the test compound was added to the experimental system as described above in such a manner as to give the final concentrations of 1, 3, 10, 30, 100, 300 and 1000 nM, an inhibition curve was prepared, and then the concentration at which 50% inhibition was achieved was taken as IC50. As a comparative compound, [4S-[4α,7α(R*),12bβ]]-7-[(1-oxo-2-(S)-thio-3-phenyl-propyl)amino]-1,2,3,4,6,7,8,12b-octahydro-6-oxopyrido-[2,1-a][2]benzazepine-4-carboxylic acid was used.

[4] = target: T2, ACE; test: ACE inhibition activity using rat lung (Experiment C-2); details: Table C-1; rat lung membrane fraction, borate buffer pH 8.3
Description: The ACE inhibition activity was determined by using a membrane fraction prepared from rat lung in accordance with the method of Wu-Wong et al. (Characterization of Endthelin Converting Enzyme in Rat Lung., Junshyum R. Wu-Wong, Gerald P. Budzik, Edward M. Devine and Terry J. Opgenorth, Biochem. Biophys. Res. Commun., 1990, 171, 1291-1296.).
The ACE activity was determined with the use of a modification (modified to a borate buffer, pH 8.3) of the method of Cushman and Cheung (Spectrophotometric Assay and Properties of the Angiotensin-Converting Enzyme of Rabbit Lung., Cushman D. W. and Cheung H. S., 1971, 20, 1637-1648.).
In the presence of ACE, the hippurate liberated from hippuryl-histidyl-leucine (Hippuryl-His-Leu (PeptideInstitute Inc., Japan)) was extracted with ethyl acetate and then the absorbance was measured at a wavelength of 228 nm.
as §3, with “ACE” for “NEP”, “reaction” for “experimental”

## O=C(O)CNC(=O)[C@@H](CS)Cc1ccc2c(c1)OCO2 [Comp cpd. F-1, N[1oxo-2(S)-mercaptomethyl-3-(3,4-methylenedioxy-phenyl)propyl]glycine, reference compound]
[1]
  IC50: 17.1 nM
[2]
  IC50: 48 nM

## CC[C@H](C)[C@H](S)C(=O)N[C@H]1CSc2ccccc2N(CC(=O)O)C1=O [Example C-12, (R)-3-[[(2S,3S)-3-Methyl-1-oxo-2-thiopentyl]amino]-5-carboxymethyl-2,3-dihydro-1,5-benzothiazepin-4(5H)-one]
[3]
  IC50: 15.1 nM
[4]
  IC50: 12.5 nM

## O=C(N[C@H]1CCC[C@H]2SC[C@@H](C(=O)O)N2C1=O)[C@@H](S)Cc1ccc(F)cc1 [Example F-14, [3R-[3α,6α(S*),9aβ]]-6[[(S)-1-Oxo-2-thio-3-(4-fluorophenyl)propyl]amino]-octahydro-5-oxothiazol [3,2-a]azepine-3-carboxylic acid]
[1]
  IC50: 22.5 nM
[2]
  IC50: 7.7 nM

## O=C(N[C@H]1CCC[C@H]2SC[C@@H](C(=O)O)N2C1=O)[C@@H](CS)Cc1ccccc1 [Example F-18, [3R-[3α,6α(S*),9aβ]]-6-[[(S)-1-Oxo-2-thiomethyl-3-phenylpropyl]amino]-octahydro-5-oxothiazol[3,2-a]-azepine-3-carboxylic acid]
[1]
  IC50: 5.6 nM
[2]
  IC50: 7 nM

## COc1ccc(C[C@H](S)C(=O)N[C@H]2CCC[C@H]3SC[C@@H](C(=O)O)N3C2=O)cc1 [Example F-19, [3R-[3α,6α(S*),9aβ]]-6-[[(S)-1-Oxo-2-thio-3-(4-methoxyphenyl)propyl]amino]-octahydro-5-oxothiazol-[3,2-a]azepine-3-carboxylic acid]
[1]
  IC50: 104 nM
[2]
  IC50: 13.5 nM

## O=C(N[C@H]1CCC[C@H]2SC[C@@H](C(=O)O)N2C1=O)[C@@H](S)Cc1ccc(-c2ccccc2)cc1 [Example F-20, [3R-[3α,6α(S*),9aβ]]-6-[[(S)-1-Oxo-2-thio-3-(1,4-biphenyl)propyl]amino]-octahydro-5-oxothiazol[3,2-a]azepine3-carboxylic acid]
[1]
  IC50: 56.5 nM
[2]
  IC50: 16 nM

## O=C(N[C@H]1CCC[C@H]2SC[C@@H](C(=O)O)N2C1=O)[C@@H](S)Cc1cccs1 [Example F-22, [3R-[3α,6α(S*),9aβ]]-6-[[(S)-1-Oxo-2-thio-3-(2-thienyl)propyl]amino]-octahydro-5-oxothiazol-[3,2-a]azepine-3-carboxylic acid]
[1]
  IC50: 9 nM
[2]
  IC50: 13 nM

## CC[C@@H](C)[C@H](S)C(=O)N[C@H]1CCC[C@H]2SC[C@@H](C(=O)O)N2C1=O [Example F-23, [3R-[3α,6α(S*),9aβ]]-6-[[(S, 3R)-1-Oxo-2-thio-3-methylpentylamino]-octahydro-5-oxothiazol-[3,2-a]azepine-3-carboxylic acid]
[1]
  IC50: 120 nM
[2]
  IC50: 8 nM

## CC[C@H](S)C(=O)N[C@H]1CCC[C@H]2SC[C@@H](C(=O)O)N2C1=O [Example F-24, [3R-[3α,6α(S*),9aβ]]-6-[(S)-1-Oxo-2-thiobutylamino]-octahydro-5-oxothiazol[3,2-a]azepine-3-carboxylic acid]
[1]
  IC50: 8 nM
[2]
  IC50: 13 nM

## CC(C)[C@H](S)C(=O)N[C@H]1CCC[C@H]2SC[C@@H](C(=O)O)N2C1=O [Example F-25, [3R-[3α,6α(S*),9aβ]]-6-[(S)-1-Oxo-2-thio-3-methylbutylamino]-octahydro-5-oxothiazol[3,2-a]azepine-3-carboxylic acid]
[1]
  IC50: 265 nM
[2]
  IC50: 9 nM
